Test results as given in patent US4837305A, “Derivatives of β-adrenergic antagonists” (The Regents of the University of California, priority 1987, dated 1989).

System: S-49 mouse lymphoma cells
Experiment: Blocking of isoproterenol-promoted cyclic AMP accumulation in S-49 mouse lymphoma cells
Format: cell-based
Conditions: blocking isoproterenol-promoted cyclic AMP release in S49 cells
Description: The β-adrenergic antagonist derivatives can be tested for biological and pharmacological activity by an in vitro technique. In this test a measurement is taken of the concentration of the derivative required to block a specified dose of isoproterenol (β-adrenergic agonist) in S-49 mouse lymphoma cells as measured by cyclic AMP accumulation therein. Details of the test utilizing S-49 mouse lymphoma cells is set forth in Coffino et al, In Vitro, 14, #1, 140 (1978). The activities of the β-adrenergic derivatives are expressed as the relative potencies of the unmodified drug, i.e., the β-adrenergic antagonist to that of the derivative drug.

| Structure (SMILES) | Rel. Potency (potency relative to the parent compound) (relative to propranolol) | Rel. Potency (potency relative to the parent compound) (relative to practolol) |
| --- | --- | --- |
| Cc1ccc(NC(=O)CCC(C)NCC(O)COc2cccc3ccccc23)cc1 (stereo not shown) [Compound 7, 4-[3-(1-Naphthyloxy)-2-Hydroxypropylamino]-Pentanoic Acid p-Toluide] | 6.8 × 10^-5 |  |
| Cc1ccc(NC(=O)CCCC(C)NCC(O)COc2cccc3ccccc23)cc1 (stereo not shown) [Compound 8, 5-[3-(1-Naphthyloxy)-2-Hydroxypropylamino]-Hexanoic Acid p-Toluide] | 6.8 × 10^-5 |  |
| Cc1ccc(NC(=O)CCCCC(C)NCC(O)COc2cccc3ccccc23)cc1 (stereo not shown) [Compound 9, 6-[3-(1-Naphthyloxy)-2-Hydroxypropylamino]-Heptanoic Acid p-Toluide] | 4.5 × 10^2 |  |
| Cc1ccc(NC(=O)CCCCCC(C)NCC(O)COc2cccc3ccccc23)cc1 (stereo not shown) [Compound 10, 7-[3-(1-Naphthyloxy)-2-Hydroxypropylamino]-Octanoic Acid-p-Toluide] | 3.7 × 10^-2 |  |
| CC(CCCCC(=O)Nc1ccc(C(F)(F)F)cc1)NCC(O)COc1cccc2ccccc12 (stereo not shown) [Compound 11, 6-[3-(1-Naphthyloxy)-2-Hydroxypropylamino]-Heptanoic Acid p-Trifluoromethylanilide] | 8.75 |  |
| CC(CCCCC(=O)Nc1ccc(CCC(=O)O)cc1)NCC(O)COc1cccc2ccccc12 (stereo not shown) [Compound 12, 3-{p-(6-[3-(1-Naphthyloxy)-2-Hydroxypropylamino]Heptanoylamino)-Phenyl}-Propionic Acid] | 8.8 × 10^-1 |  |
| CCCCNC(=O)CCc1ccc(NC(=O)CCCCC(C)NCC(O)COc2cccc3ccccc23)cc1 (stereo not shown) [Compound 13, 3-{p-(6-[3-(1-Naphthyloxy)-2-Hydroxypropylamino]Heptanoylamino)-Phenyl}-Propionic Acid n-Butylamide] | 4.5 × 10^-2 |  |
| CCCCNC(=O)CCCCC(C)NCC(O)COc1cccc2ccccc12 (stereo not shown) [Compound 14, 6-[3-(1-Naphthyloxy)-2-Hydroxypropylamino]-Heptanoic Acid n-Butylamide] | 9.1 × 10^-1 |  |
| CC(=O)N[C@@H](Cc1ccc(NC(=O)CCCCC(C)NCC(O)COc2cccc3ccccc23)cc1)C(=O)NCCCO (stereo partly drawn) [Compound 15, N^α -Acetyl-p-{6-(3-[1-Naphthyloxy]-2-Hydroxypropylamino)-Heptanoylamino}-L-Phenylalanyl-3-Hydroxypropylamide] | 1.75 × 10^-1 |  |
| CNC(=O)CNC(=O)[C@H](Cc1ccc(NC(=O)CCCCC(C)NCC(O)COc2cccc3ccccc23)cc1)NC(=O)OC(C)(C)C (stereo partly drawn) [Compound 16, N^α -t-Butyloxycarbonyl-p-{6-(3-[1-Naphthyloxy]-2-Hydroxypropylamino)-Heptanoylamino}-L-Phenylalanyl-Glycyl-Methylamide] | 7.8 × 10^-4 |  |
| CC(=O)Nc1ccc(OCC(O)CNC(C)CCCCC(=O)Nc2ccc(C)cc2)cc1 (stereo not shown) [Compound 17, 6-[3-(4-Acetamidophenoxy)-2-Hydroxypropylamino]-Heptanoic Acid p-Toluide] |  | 2.1 × 10^1 |
| CC(=O)Nc1ccc(OCC(O)CNC(C)CCCCC(=O)Nc2ccc(C(F)(F)F)cc2)cc1 (stereo not shown) [Compound 18, 6-[3-(4-Acetamidophenoxy)-2-Hydroxypropylamino]-Heptanoic Acid p-Trifluoromethylanilide] |  | 6.0 |
| CC(=O)Nc1ccc(OCC(O)CNC(C)CCCCC(=O)Nc2ccc(C[C@H](NC(C)=O)C(=O)NCCCO)cc2)cc1 (stereo partly drawn) [Compound 19, N^α -Acetyl-p-{6-(3-[4-Acetamidophenoxy]-2-Hydroxypropylamino)-Heptanoylamino}-L-Phenylalanyl-3-Hydroxypropylamide] |  | 1.5 |
